Laboratory results: US5140014A (Abbott Laboratories, priority 1989, dated 1992)
Read-outs that look alike come from different tables or passages of the source.

What was measured:
Assay in all cases: in vitro antibacterial activity, agar dilution method (MIC)
Assay type in all cases: cell-based
[1] = system: Acinetobacter Sp; details: Acinetobacter, strain CMX 669; BHI agar, 20-24 hours; read-out: MIC
In short: (§1)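 Agar dilution in BHI agar, usually 12 two-fold dilutions from a 2,000 ug/mL stock. About 10^4 organisms from overnight BHI broth cultures (diluted 1:100) were spotted and incubated at 35-37 °C for 20-24 h. MIC was the lowest concentration giving no growth, slight haze or sparse colonies versus growth control.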

[2] = system: Enterobacter Aerogenes; details: Klebsiella aerogenes, ATCC13048, strain ATCC 13048; BHI agar, 20-24 hours; read-out: MIC
In short: as §1

[3] = system: Enterococcus Faecium; details: Enterococcus faecium, ATCC8043, strain ATCC 8043; BHI agar, 20-24 hours; read-out: MIC
In short: as §1

[4] = system: Haemophilus Influenzae; details: Haemophilus influenzae, BHI agar, 20-24 hours
In short: as §1

[5] = system: Klebsiella Pneumoniae; details: Klebsiella pneumoniae, ATCC8045, strain ATCC 8045; BHI agar, 20-24 hours; read-out: MIC
In short: as §1

[6] = system: Micrococcus Luteus; details: Micrococcus luteus, BHI agar, 20-24 hours, read-out: MIC
In short: (§2)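 Agar dilution in Brain Heart Infusion agar, usually 12 two-fold dilutions from a 2,000 ug/mL stock. Overnight BHI broth cultures were diluted 1:100 (1:10 for slow growers such as Streptococcus), and ~10^4 organisms were spotted per plate. MIC read after 20-24 h at 35°-37° C as lowest concentration giving no growth, slight haze or sparse colonies versus growth control.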

[7] = system: Providencia Stuartii; details: Providencia stuartii; strain CMX 640; BHI agar, 20-24 hours; read-out: MIC
In short: as §1

[8] = system: Pseudomonas Aeruginosa; details: Pseudomonas aeruginosa, BHI agar, 20-24 hours, read-out: MIC
In short: as §1

[9] = system: Staphylococcus Aureus; details: Staphylococcus aureus, BHI agar, 20-24 hours, read-out: MIC
In short: as §1

[10] = system: Staphylococcus Epidermidis; details: Staphylococcus epidermidis, strain 3519; BHI agar, 20-24 hours; read-out: MIC
In short: as §1

[11] = system: Streptococcus Agalactiae; details: Streptococcus agalactiae, strain CMX 508; BHI agar, 20-24 hours; read-out: MIC
In short: as §1

[12] = system: Streptococcus Bovis; details: Streptococcus equinus, strain A5169; BHI agar, 20-24 hours
In short: as §1

[13] = system: Streptococcus Pyogenes; details: Streptococcus pyogenes, BHI agar, 20-24 hours, read-out: MIC
In short: as §2

[14] = system: Escherichia Coli; details: Escherichia coli, BHI agar, 20-24 hours, read-out: MIC
In short: (§3)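 Agar dilution on BHI agar, typically 12 two-fold dilutions prepared from a 2,000 ug/mL stock solution. Plates were spot-inoculated with about 10^4 organisms from overnight BHI broth cultures, then incubated 20-24 h at 35°-37° C. MIC was the lowest concentration giving no growth, a slight haze or sparse isolated colonies compared with the growth control.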

[15] = system: Pseudomonas Cepacia; details: Burkholderia cepacia; strain 296I; BHI agar, 20-24 hours; read-out: MIC
In short: as §3

Measured: MIC

CCC1OC(=O)CC(O)C(C)C(OC2OC(C)CC(N(C)C)C2O)C(CC=O)CC(C)C(N(C)C)CCC(C)=CC1COC(C)=O (stereo not drawn) [Example 8, [9S]-23-O-Acetyl-9-deoxo-4'-deoxy-10,11-dihydro-9-N,N-dimethylamino-5-O-mycaminosyl-tylonide]
12.5 mg/L: [1]
0.1 mg/L: [12]
1 mg/L: [4]; strain 519A | [4]; strain 1435
50 mg/L: [2] | [5] | [13]; strain 930 CONST | [14]; strain JUHL
0.25 mg/L: [4]; strain 1177, read-out: MIC
0.78 mg/L: [6]; ATCC4698, strain ATCC 4698 | [9]; NCTC10649, strain NCTC 10649 | [13]; strain EES61
3.1 mg/L: [9]; ATCC6538P, strain ATCC 6538P | [9]; strain 45 | [9]; strain 45 RAR2 | [9]; strain 642A | [9]; strain CMX 553
1.56 mg/L: [3] | [9]; strain A5177 | [10] | [13]; strain 2548 INDUC
0.39 mg/L: [11]
8 mg/L: [4]; strain 751
2 mg/L: [4]; ATCC9795, strain ATCC 9795, read-out: MIC | [4]; ATCC10211, strain ATCC 10211, read-out: MIC | [4]; ATCC19418, strain ATCC 19418, read-out: MIC | [4]; ATCC43095, strain ATCC 43095, read-out: MIC | [4]; strain 503B, read-out: MIC | [4]; strain 504, read-out: MIC | [4]; strain 566A, read-out: MIC | [4]; strain 588A, read-out: MIC | [4]; strain 632A, read-out: MIC | [4]; strain 667A, read-out: MIC | [4]; strain 747C, read-out: MIC | [4]; strain DILL AMP R, read-out: MIC | [4]; strain SOL AMP R, read-out: MIC | [4]; strain SPK AMP R, read-out: MIC
25 mg/L: [14]; strain DC-2 | [14]; strain KNK 437
0.2 mg/L: [6]; ATCC9341, strain ATCC 9341 | [14]; strain SS
6.2 mg/L: [8]; strain K799/61 | [14]; strain H560
> 100 mg/L: [7] | [8]; strain A5007 | [8]; strain BMH10 | [8]; strain K799/WT | [15]
